For the series, the system named is K562 CRISPRi cells. Description: Perturb-seq pooled growth measurement (sgRNA counts, growth phenotype γ, relative activity). In kind it is cell-based, human. Conditions: sequencing read counts; for Perturb-seq pooled growth sgRNA counts, d5: 5 days of growth (day seven after transduction); for Perturb-seq pooled growth sgRNA counts, d10: 10 days of growth (day twelve after transduction); for Perturb-seq pooled growth sgRNA counts, T0: T0 = day two after transduction. An excerpt:
Finally, we sought to use intermediate-activity sgRNAs to explore relationships between expression levels of various genes and the resulting cellular phenotypes. To simultaneously measure gene expression levels and obtain rich phenotypes for a variety of sgRNA series, we used Perturb-seq, an experimental strategy that enables matched capture of the transcriptome and the identity of an expressed sgRNA for each individual cell in pools of cells (27, 31-33) (FIG. 12A). […] In addition to the single-cell transcriptomes, we measured bulk growth phenotypes conferred by sgRNAs in these cells.
To measure the growth rate defects conferred by each sgRNA for comparison with the transcriptional phenotypes, samples of 500,000 transduced cells were taken from the same transduced cell population used in the Perturb-seq experiment on days two, seven, and twelve after transduction. Genomic DNA was extracted using the Nucleospin Blood kit (Macherey-Nagel) and sgRNA amplicons were prepared as described previously and above (19), albeit with no genomic DNA digestion or gel purification, and sequenced on HiSeq 4000 as described above for the other screens. Growth phenotypes were calculated by comparing normalized sgRNA abundances at day seven and twelve to those at day two, as described above. […] Relative sgRNA activities measured at day seven (five days of growth) were used to assign sgRNA activities in further analysis.

Take “COX11_+_53045977.23-P1P2_10: sgRNA targeting COX11, GGCTCTGGCGTCCCGGATGG, SEQ ID NO: 145 (listed as DNA, chemistry not fully specified)”: the “Perturb-seq pooled growth sgRNA counts, d5” value is listed as 8887; the “Perturb-seq pooled growth sgRNA counts, d10” value amounted to 11271; the “Perturb-seq pooled growth sgRNA counts, T0” value worked out at 5206.
On to “DBR1_+_137893744.23-P1P2_00: sgRNA targeting DBR1, GTTTGCAGGAGTCTACACCC, SEQ ID NO: 78 (listed as DNA, chemistry not fully specified)”, for which the “Perturb-seq pooled growth sgRNA counts, d5” value is given as 9171; the “Perturb-seq pooled growth sgRNA counts, d10” value amounted to 3583; the “Perturb-seq pooled growth sgRNA counts, T0” value is 13446.
Consider “DBR1_+_137893744.23-P1P2_01: sgRNA targeting DBR1, GATTGCAGGAGTCTACACCC, SEQ ID NO: 79 (listed as DNA, chemistry not fully specified)”, for which the “Perturb-seq pooled growth sgRNA counts, d5” value turned out to be 5512; the “Perturb-seq pooled growth sgRNA counts, d10” value is 1824; the “Perturb-seq pooled growth sgRNA counts, T0” value is given as 9446.
For “DBR1_+_137893744.23-P1P2_05: sgRNA targeting DBR1, GTTTGCAGGAGTGTACACCC, SEQ ID NO: 81 (listed as DNA, chemistry not fully specified)” the same measures were 6705, 4748 and 6569.
As to “DBR1_+_137893744.23-P1P2_07: sgRNA targeting DBR1, GTTTGCAGGGGTCTACACCC, SEQ ID NO: 80 (listed as DNA, chemistry not fully specified)”, the “Perturb-seq pooled growth sgRNA counts, d5” value amounted to 4894; the “Perturb-seq pooled growth sgRNA counts, d10” value was 2550; the “Perturb-seq pooled growth sgRNA counts, T0” value is reported as 8500.
For “DBR1_+_137893744.23-P1P2_08: sgRNA targeting DBR1, GTTTGCAGTAGTCTACACCC, SEQ ID NO: 82 (listed as DNA, chemistry not fully specified)”, the “Perturb-seq pooled growth sgRNA counts, d5” value came out at 11651; the “Perturb-seq pooled growth sgRNA counts, d10” value was 15989; the “Perturb-seq pooled growth sgRNA counts, T0” value is on record as 5326.
For “DUT_+_48624411.23-P1P2_00: sgRNA targeting DUT, GCGAGCGAGGAGACCACCGG, SEQ ID NO: 110 (listed as DNA, chemistry not fully specified)”, the “Perturb-seq pooled growth sgRNA counts, d5” value is 3755; the “Perturb-seq pooled growth sgRNA counts, d10” value is given as 1570; the “Perturb-seq pooled growth sgRNA counts, T0” value came out at 14025.
Regarding “DUT_+_48624411.23-P1P2_01: sgRNA targeting DUT, GCCAGCGAGGAGACCACCGG, SEQ ID NO: 111 (listed as DNA, chemistry not fully specified)”, the “Perturb-seq pooled growth sgRNA counts, d5” value stood at 6764; the “Perturb-seq pooled growth sgRNA counts, d10” value is 3576; the “Perturb-seq pooled growth sgRNA counts, T0” value was 25227.
As to “DUT_+_48624411.23-P1P2_07: sgRNA targeting DUT, GCGAGCGAGGAGCCCACCGG, SEQ ID NO: 113 (listed as DNA, chemistry not fully specified)”, the “Perturb-seq pooled growth sgRNA counts, d5” value is 1509; the “Perturb-seq pooled growth sgRNA counts, d10” value is listed as 1157; the “Perturb-seq pooled growth sgRNA counts, T0” value is reported as 4601.
With “DUT_+_48624411.23-P1P2_08: sgRNA targeting DUT, GCGAGCGAGGAGGCCACCGG, SEQ ID NO: 112 (listed as DNA, chemistry not fully specified)”, the “Perturb-seq pooled growth sgRNA counts, d5” value turned out to be 4351; the “Perturb-seq pooled growth sgRNA counts, d10” value is recorded as 2392; the “Perturb-seq pooled growth sgRNA counts, T0” value was determined as 15356.
For “DUT_+_48624411.23-P1P2_10: sgRNA targeting DUT, GCGAGCGAGGAGACCAACGG, SEQ ID NO: 114 (listed as DNA, chemistry not fully specified)”, the “Perturb-seq pooled growth sgRNA counts, d5” value came out at 5403; the “Perturb-seq pooled growth sgRNA counts, d10” value is 4466; the “Perturb-seq pooled growth sgRNA counts, T0” value turned out to be 6538.
As to “EIF2S1_−_67827080.23-P1P2_00: sgRNA targeting EIF2S1, GAGCGAAGCGCACGCTGAGG, SEQ ID NO: 136 (listed as DNA, chemistry not fully specified)”, the “Perturb-seq pooled growth sgRNA counts, d5” value is 1123; the “Perturb-seq pooled growth sgRNA counts, d10” value was 1318; the “Perturb-seq pooled growth sgRNA counts, T0” value is recorded as 5718.
As to “EIF2S1_−_67827080.23-P1P2_01: sgRNA targeting EIF2S1, GAGCGAAACGCACGCTGAGG, SEQ ID NO: 139 (listed as DNA, chemistry not fully specified)”, the “Perturb-seq pooled growth sgRNA counts, d5” value is listed as 3799; the “Perturb-seq pooled growth sgRNA counts, d10” value is listed as 4065; the “Perturb-seq pooled growth sgRNA counts, T0” value worked out at 5433.
For the substance “EIF2S1_−_67827080.23-P1P2_02: sgRNA targeting EIF2S1, GAGCGCAGCGCACGCTGAGG, SEQ ID NO: 138 (listed as DNA, chemistry not fully specified)”, the “Perturb-seq pooled growth sgRNA counts, d5” value came out at 2570; the “Perturb-seq pooled growth sgRNA counts, d10” value is 2582; the “Perturb-seq pooled growth sgRNA counts, T0” value was 8035.
For the substance “EIF2S1_−_67827080.23-P1P2_06: sgRNA targeting EIF2S1, GAGCGAAGCGCGCGCTGAGG, SEQ ID NO: 137 (listed as DNA, chemistry not fully specified)”, the “Perturb-seq pooled growth sgRNA counts, d5” value is reported as 1718; the “Perturb-seq pooled growth sgRNA counts, d10” value is listed as 2436; the “Perturb-seq pooled growth sgRNA counts, T0” value was found to be 4549.
As for “EIF2S1_−_67827080.23-P1P2_07: sgRNA targeting EIF2S1, GAGCGAAGCGCTCGCTGAGG, SEQ ID NO: 140 (listed as DNA, chemistry not fully specified)”, the “Perturb-seq pooled growth sgRNA counts, d5” value came to 13281; the “Perturb-seq pooled growth sgRNA counts, d10” value is 22309; the “Perturb-seq pooled growth sgRNA counts, T0” value is given as 6931.
For “GATA1_−_48645022.23-P1P2_00: sgRNA targeting GATA1, GTGAGCTTGCCACATCCCCA, SEQ ID NO: 119 (listed as DNA, chemistry not fully specified)” the same measures were 955, 757 and 5712.
On to “GATA1_−_48645022.23-P1P2_03: sgRNA targeting GATA1, GTGCGCTTGCCACATCCCCA, SEQ ID NO: 120 (listed as DNA, chemistry not fully specified)”, for which the “Perturb-seq pooled growth sgRNA counts, d5” value came to 1927; the “Perturb-seq pooled growth sgRNA counts, d10” value was 1534; the “Perturb-seq pooled growth sgRNA counts, T0” value was found to be 12276.
Taken in the same sequence, the figures for “GATA1_−_48645022.23-P1P2_04: sgRNA targeting GATA1, GTGAGCTTACCACATCCCCA, SEQ ID NO: 121 (listed as DNA, chemistry not fully specified)” were 860, 668 and 4714.
“GATA1_−_48645022.23-P1P2_06: sgRNA targeting GATA1, GTGAGCTTGCGACATCCCCA, SEQ ID NO: 123 (listed as DNA, chemistry not fully specified)”: the “Perturb-seq pooled growth sgRNA counts, d5” value amounted to 5580; the “Perturb-seq pooled growth sgRNA counts, d10” value is listed as 5489; the “Perturb-seq pooled growth sgRNA counts, T0” value is 9440.
In the case of “GATA1_−_48645022.23-P1P2_08: sgRNA targeting GATA1, GTGAGCTTTCCACATCCCCA, SEQ ID NO: 122 (listed as DNA, chemistry not fully specified)”, the “Perturb-seq pooled growth sgRNA counts, d5” value is recorded as 2043; the “Perturb-seq pooled growth sgRNA counts, d10” value is on record as 1873; the “Perturb-seq pooled growth sgRNA counts, T0” value is given as 7028.
As to “GATA1_−_48645022.23-P1P2_12: sgRNA targeting GATA1, GTGAGCTTGCCACATCCGCA, SEQ ID NO: 124 (listed as DNA, chemistry not fully specified)”, the “Perturb-seq pooled growth sgRNA counts, d5” value stood at 7289; the “Perturb-seq pooled growth sgRNA counts, d10” value turned out to be 11548; the “Perturb-seq pooled growth sgRNA counts, T0” value amounted to 4081.
Take “GINS1_−_25388381.23-P1P2_00: sgRNA targeting GINS1, GGACTAGAACGAAAGGAGTG, SEQ ID NO: 93 (listed as DNA, chemistry not fully specified)”: the “Perturb-seq pooled growth sgRNA counts, d5” value is 547; the “Perturb-seq pooled growth sgRNA counts, d10” value is given as 280; the “Perturb-seq pooled growth sgRNA counts, T0” value was found to be 3621.
As for “GINS1_−_25388381.23-P1P2_03: sgRNA targeting GINS1, GGACTATAACGAAAGGAGTG, SEQ ID NO: 96 (listed as DNA, chemistry not fully specified)”, the “Perturb-seq pooled growth sgRNA counts, d5” value is recorded as 2982; the “Perturb-seq pooled growth sgRNA counts, d10” value is recorded as 2755; the “Perturb-seq pooled growth sgRNA counts, T0” value worked out at 9799.
“GINS1_−_25388381.23-P1P2_06: sgRNA targeting GINS1, GGACTAGAACGGAAGGAGTG, SEQ ID NO: 95 (listed as DNA, chemistry not fully specified)”: the “Perturb-seq pooled growth sgRNA counts, d5” value was 1828; the “Perturb-seq pooled growth sgRNA counts, d10” value amounted to 1219; the “Perturb-seq pooled growth sgRNA counts, T0” value was found to be 11452.

These data come from US20220259593A1, “CONTROL OF MAMMALIAN GENE DOSAGE USING CRISPR” (The Regents of the University of California, priority 2019, published 2022).
